In PubChem BioAssay AID1918991 (Molecular Pharmacology Branch, DTP, NCI, 2023):
pIC50: −log10 of the molar value.

Tested on: 186277-243-T-J2-PDC complex spheroid growth
Assay: Anticancer human tumor 186277-243-T-J2-PDC patient-derived colon adenocarcinoma cell line growth inhibition [AhR]
Settings: for pIC50: curve of first compound; for viability, T/C: stronger effect = lower value; active = viability on the fitted dose curve at most 10% of control; inactive = the rest
Summary of the method: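 Agents were dosed in half-log steps down from roughly clinical Cmax, or from 10 microM where Cmax was unknown, alone and with AhR antagonists. Read-out: percent test/control growth of tumor spheroids containing HUVEC and MSC stromal cells.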

[1] = second compound 0.1 µM, first compound 0.0316 µM
[2] = second compound 0.1 µM, first compound 0.1 µM
[3] = second compound 0.1 µM, first compound 0.316 µM
[4] = second compound 0.1 µM, first compound 1 µM
[5] = second compound 0.1 µM, first compound 3.16 µM
[6] = second compound 0.1 µM, first compound 10 µM
[7] = second compound 0.316 µM, first compound 0.0316 µM
[8] = second compound 0.316 µM, first compound 0.1 µM
[9] = second compound 0.316 µM, first compound 0.316 µM
[10] = second compound 0.316 µM, first compound 1 µM
[11] = second compound 0.316 µM, first compound 3.16 µM
[12] = second compound 0.316 µM, first compound 10 µM
[13] = second compound 1 µM, first compound 0.0316 µM
[14] = second compound 1 µM, first compound 0.1 µM
[15] = second compound 1 µM, first compound 0.316 µM
[16] = second compound 1 µM, first compound 1 µM
[17] = second compound 1 µM, first compound 3.16 µM
[18] = second compound 1 µM, first compound 10 µM
[19] = second compound 3.16 µM, first compound 0.0316 µM
[20] = second compound 3.16 µM, first compound 0.1 µM
[21] = second compound 3.16 µM, first compound 0.316 µM
[22] = second compound 3.16 µM, first compound 1 µM
[23] = second compound 3.16 µM, first compound 3.16 µM
[24] = second compound 3.16 µM, first compound 10 µM
[25] = second compound 10 µM, first compound 0.0316 µM
[26] = second compound 10 µM, first compound 0.1 µM
[27] = second compound 10 µM, first compound 0.316 µM
[28] = second compound 10 µM, first compound 1 µM
[29] = second compound 10 µM, first compound 3.16 µM
[30] = second compound 10 µM, first compound 10 µM
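Also: spheroids exposed to compounds for seven days before the viability read.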
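For viability, T/C in this document: luminescent signal used as a stand-in for viable cell amount; 100% = DMSO vehicle control wells.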

CC1(C)CCC(CN2CCN(c3ccc(C(=O)NS(=O)(=O)c4ccc(NCC5CCOCC5)c([N+](=O)[O-])c4)c(Oc4cnc5[nH]ccc5c4)c3)CC2)=C(c2ccc(Cl)cc2)C1 + Cc1ccccc1N=Nc1ccc(NC(=O)c2ccnn2C)c(C)c1
5.16: pIC50 (second compound 0.316 µM) | pIC50 (second compound 3.16 µM)
5.14: pIC50 (second compound 1 µM)
5.13: pIC50 (second compound 0.1 µM)
inactive: viability, T/C [1] 95.1% | viability, T/C [2] 98.9% | viability, T/C [3] 115% | viability, T/C [4] 110% | viability, T/C [5] 103% | viability, T/C [6] 31.8% | viability, T/C [7] 94.1% | viability, T/C [8] 108% | viability, T/C [9] 96.4% | viability, T/C [10] 100% | viability, T/C [11] 87.9% | viability, T/C [12] 31.7% | viability, T/C [13] 103% | viability, T/C [14] 99.3% | viability, T/C [15] 110% | viability, T/C [16] 98.2% | viability, T/C [17] 110% | viability, T/C [18] 29.8% | viability, T/C [19] 91.3% | viability, T/C [20] 91.8% | viability, T/C [21] 100% | viability, T/C [22] 94.3% | viability, T/C [23] 91.2% | viability, T/C [24] 30.9% | viability, T/C [25] 88.7% | viability, T/C [26] 82.5% | viability, T/C [27] 95.3% | viability, T/C [28] 92.5% | viability, T/C [29] 85.7% | viability, T/C [30] 25.5%
5.20: pIC50 (second compound 10 µM)

CCN(c1cc(-c2ccc(CN3CCOCC3)cc2)cc(C(=O)NCc2c(C)cc(C)[nH]c2=O)c1C)C1CCOCC1 + Cc1ccccc1N=Nc1ccc(NC(=O)c2ccnn2C)c(C)c1
inactive: viability, T/C (second compound 0.1 µM, first compound 0.00949 µM) 105% | viability, T/C (second compound 0.1 µM, first compound 0.03 µM) 118% | viability, T/C (second compound 0.1 µM, first compound 0.0949 µM) 112% | viability, T/C (second compound 0.1 µM, first compound 0.3 µM) 108% | viability, T/C (second compound 0.1 µM, first compound 0.949 µM) 102% | viability, T/C (second compound 0.1 µM, first compound 3 µM) 102% | viability, T/C (second compound 0.316 µM, first compound 0.00949 µM) 95.7% | viability, T/C (second compound 0.316 µM, first compound 0.03 µM) 109% | viability, T/C (second compound 0.316 µM, first compound 0.0949 µM) 100% | viability, T/C (second compound 0.316 µM, first compound 0.3 µM) 105% | viability, T/C (second compound 0.316 µM, first compound 0.949 µM) 103% | viability, T/C (second compound 0.316 µM, first compound 3 µM) 112% | viability, T/C (second compound 1 µM, first compound 0.00949 µM) 104% | viability, T/C (second compound 1 µM, first compound 0.03 µM) 102% | viability, T/C (second compound 1 µM, first compound 0.0949 µM) 102% | viability, T/C (second compound 1 µM, first compound 0.3 µM) 94.5% | viability, T/C (second compound 1 µM, first compound 0.949 µM) 100% | viability, T/C (second compound 1 µM, first compound 3 µM) 112% | viability, T/C (second compound 3.16 µM, first compound 0.00949 µM) 91% | viability, T/C (second compound 3.16 µM, first compound 0.03 µM) 94.7% | viability, T/C (second compound 3.16 µM, first compound 0.0949 µM) 99.5% | viability, T/C (second compound 3.16 µM, first compound 0.3 µM) 94% | viability, T/C (second compound 3.16 µM, first compound 0.949 µM) 107% | viability, T/C (second compound 3.16 µM, first compound 3 µM) 104% | viability, T/C (second compound 10 µM, first compound 0.00949 µM) 89.9% | viability, T/C (second compound 10 µM, first compound 0.03 µM) 91.2% | viability, T/C (second compound 10 µM, first compound 0.0949 µM) 86.3% | viability, T/C (second compound 10 µM, first compound 0.3 µM) 79.8% | viability, T/C (second compound 10 µM, first compound 0.949 µM) 84.2% | viability, T/C (second compound 10 µM, first compound 3 µM) 93.2%
< 5.52: pIC50 (second compound 0.1 µM) | pIC50 (second compound 0.316 µM) | pIC50 (second compound 1 µM) | pIC50 (second compound 3.16 µM) | pIC50 (second compound 10 µM)

COc1cc(Nc2ncc3c(n2)-c2ccc(Cl)cc2C(c2c(F)cccc2OC)=NC3)ccc1C(=O)O + Cc1ccccc1N=Nc1ccc(NC(=O)c2ccnn2C)c(C)c1
< 5.00: pIC50 (second compound 0.1 µM) | pIC50 (second compound 0.316 µM) | pIC50 (second compound 1 µM) | pIC50 (second compound 3.16 µM) | pIC50 (second compound 10 µM)
inactive: viability, T/C [1] 132% | viability, T/C [2] 125% | viability, T/C [3] 117% | viability, T/C [4] 107% | viability, T/C [5] 115% | viability, T/C [6] 120% | viability, T/C [7] 134% | viability, T/C [8] 119% | viability, T/C [9] 114% | viability, T/C [10] 108% | viability, T/C [11] 101% | viability, T/C [12] 117% | viability, T/C [13] 130% | viability, T/C [14] 123% | viability, T/C [15] 114% | viability, T/C [16] 107% | viability, T/C [17] 107% | viability, T/C [18] 117% | viability, T/C [19] 133% | viability, T/C [20] 118% | viability, T/C [21] 110% | viability, T/C [22] 103% | viability, T/C [23] 106% | viability, T/C [24] 114% | viability, T/C [25] 108% | viability, T/C [26] 104% | viability, T/C [27] 105% | viability, T/C [28] 96.5% | viability, T/C [29] 93.3% | viability, T/C [30] 102%

Cn1ncnc1C1c2n[nH]c(=O)c3cc(F)cc(c23)NC1c1ccc(F)cc1 (stereo not given) + Cc1ccccc1N=Nc1ccc(NC(=O)c2ccnn2C)c(C)c1
inactive: viability, T/C (second compound 0.1 µM, first compound 0.000316 µM) 107% | viability, T/C (second compound 0.1 µM, first compound 0.001 µM) 101% | viability, T/C (second compound 0.1 µM, first compound 0.00316 µM) 107% | viability, T/C (second compound 0.1 µM, first compound 0.01 µM) 93.2% | viability, T/C [1] 108% | viability, T/C [2] 107% | viability, T/C (second compound 0.316 µM, first compound 0.000316 µM) 98.8% | viability, T/C (second compound 0.316 µM, first compound 0.001 µM) 113% | viability, T/C (second compound 0.316 µM, first compound 0.00316 µM) 101% | viability, T/C (second compound 0.316 µM, first compound 0.01 µM) 104% | viability, T/C [7] 107% | viability, T/C [8] 103% | viability, T/C (second compound 1 µM, first compound 0.000316 µM) 109% | viability, T/C (second compound 1 µM, first compound 0.001 µM) 98.3% | viability, T/C (second compound 1 µM, first compound 0.00316 µM) 109% | viability, T/C (second compound 1 µM, first compound 0.01 µM) 116% | viability, T/C [13] 105% | viability, T/C [14] 118% | viability, T/C (second compound 3.16 µM, first compound 0.000316 µM) 101% | viability, T/C (second compound 3.16 µM, first compound 0.001 µM) 101% | viability, T/C (second compound 3.16 µM, first compound 0.00316 µM) 113% | viability, T/C (second compound 3.16 µM, first compound 0.01 µM) 105% | viability, T/C [19] 119% | viability, T/C [20] 112% | viability, T/C (second compound 10 µM, first compound 0.000316 µM) 95.4% | viability, T/C (second compound 10 µM, first compound 0.001 µM) 96.7% | viability, T/C (second compound 10 µM, first compound 0.00316 µM) 101% | viability, T/C (second compound 10 µM, first compound 0.01 µM) 105% | viability, T/C [25] 95.3% | viability, T/C [26] 98.7%
< 7.00: pIC50 (second compound 0.1 µM) | pIC50 (second compound 0.316 µM) | pIC50 (second compound 1 µM) | pIC50 (second compound 3.16 µM) | pIC50 (second compound 10 µM)

NS(=O)(=O)OCC1CC(n2ccc3c(NC4CCc5ccccc54)ncnc32)CC1O (stereo not given) + Cc1ccccc1N=Nc1ccc(NC(=O)c2ccnn2C)c(C)c1
inactive: viability, T/C [1] 106% | viability, T/C [2] 97.9% | viability, T/C [3] 77.6% | viability, T/C [4] 43.7% | viability, T/C [5] 23.1% | viability, T/C [7] 109% | viability, T/C [8] 117% | viability, T/C [9] 67.1% | viability, T/C [10] 38% | viability, T/C [11] 19.6% | viability, T/C [12] 8.23% | viability, T/C [13] 110% | viability, T/C [14] 110% | viability, T/C [15] 61.4% | viability, T/C [16] 38.6% | viability, T/C [17] 20.1% | viability, T/C [18] 9.57% | viability, T/C [19] 103% | viability, T/C [20] 97.5% | viability, T/C [21] 50.2% | viability, T/C [22] 36.3% | viability, T/C [23] 13.6% | viability, T/C [25] 93.7% | viability, T/C [26] 80% | viability, T/C [27] 43.5% | viability, T/C [28] 29.8% | viability, T/C [29] 10.1%
6.52: pIC50 (second compound 10 µM)
6.20: pIC50 (second compound 0.316 µM)
6.34: pIC50 (second compound 3.16 µM)
6.07: pIC50 (second compound 0.1 µM)
6.23: pIC50 (second compound 1 µM)
active: viability, T/C [6] 7.4% | viability, T/C [24] 5.34% | viability, T/C [30] 4.53%
